In EP3072956A1, “Selective culture medium for polymyxin-resistant, gram-negative bacteria” (priority 2015, dated 2016):

Columns and labels:
Assay in all cases: MIC determination by broth microdilution (MHB-CA, CLSI)
Format in all cases: cell-based
P. mirabilis = conditions: strain Pmir
Description: (§1) Determination of MIC values were performed by broth microdilution in Cation-Adjusted Mueller-Hinton broth (MHB-CA) according to the CLSI guidelines (Clinical and Laboratory Standards Institute). Polymyxin B and colistin (Sigma-Aldrich, Saint-Louis) were tested with or without Tween 80 over a range dilution from 0.12 to 128 µg/ml. The surfactant Tween 80, at a final concentration of 0.002%, prevents the binding of polymyxins to multi-array plastic panel. Actually, the use of Tween for determination of MIC of polymyxins is still debatable. MHB-CA broth and 5.10^5 CFU/ml of each tested strain were distributed in each well. Following the EUCAST breakpoints, strains were characterized as susceptible or resistant to polymyxins.

E. aerogenes = conditions: strain 36F8
Description: as §1

A. baumannii = tested on: A. baumannii
Description: as §1

S. marcescens = conditions: strain Smar
Description: as §1

E. cloacae = tested on: E. cloacae
Description: as §1

K. pneumoniae = tested on: K. pneumoniae
Description: as §1

Measured: MIC

polymyxin B
>128 µg/mL: P. mirabilis; With Tween80 | P. mirabilis; Without Tween80 | S. marcescens; With Tween80 | S. marcescens; Without Tween80 | E. cloacae; strain HM, With Tween80 | E. cloacae; strain HM, Without Tween80 | K. pneumoniae; strain C7, With Tween80 | K. pneumoniae; strain C7, Without Tween80 | K. pneumoniae; strain C27, With Tween80
8 µg/mL: K. pneumoniae; strain AF1b, With Tween80 | K. pneumoniae; strain AF1b, Without Tween80
32 µg/mL: K. pneumoniae; strain 18J1, With Tween80 | K. pneumoniae; strain 18J1, Without Tween80 | K. pneumoniae; strain 1118, With Tween80 | K. pneumoniae; strain 1118, Without Tween80 | K. pneumoniae; strain 1515, With Tween80 | K. pneumoniae; strain 1515, Without Tween80 | K. pneumoniae; strain C3, Without Tween80 | K. pneumoniae; strain C16, Without Tween80 | K. pneumoniae; strain C25, With Tween80
0.12 µg/mL: E. aerogenes; With Tween80 | E. aerogenes; Without Tween80 | A. baumannii; strain C105, With Tween80 | E. cloacae; strain C144, With Tween80 | K. pneumoniae; strain 36A5, With Tween80 | K. pneumoniae; strain 36A5, Without Tween80 | K. pneumoniae; strain 38B7, Without Tween80
64 µg/mL: K. pneumoniae; strain 12E2, With Tween80 | K. pneumoniae; strain 12E2, Without Tween80 | K. pneumoniae; strain 13G2, With Tween80 | K. pneumoniae; strain 13G2, Without Tween80 | K. pneumoniae; strain C1, With Tween80 | K. pneumoniae; strain C11, With Tween80 | K. pneumoniae; strain C12, With Tween80 | K. pneumoniae; strain C16, With Tween80 | K. pneumoniae; strain C22, With Tween80 | K. pneumoniae; strain C22, Without Tween80 | K. pneumoniae; strain C25, Without Tween80
0.5 µg/mL: A. baumannii; strain 38B9, Without Tween80 | A. baumannii; strain C105, Without Tween80 | K. pneumoniae; strain 36A7, With Tween80 | K. pneumoniae; strain 36A7, Without Tween80 | K. pneumoniae; strain 38B7, With Tween80
16 µg/mL: E. cloacae; strain C28, With Tween80 | E. cloacae; strain C28, Without Tween80 | K. pneumoniae; strain C3, With Tween80
128 µg/mL: A. baumannii; strain Aba6, With Tween80 | A. baumannii; strain Aba6, Without Tween80 | K. pneumoniae; strain 75b, With Tween80 | K. pneumoniae; strain 75b, Without Tween80 | K. pneumoniae; strain BICb, With Tween80 | K. pneumoniae; strain BICb, Without Tween80 | K. pneumoniae; strain C1, Without Tween80 | K. pneumoniae; strain C11, Without Tween80 | K. pneumoniae; strain C12, Without Tween80 | K. pneumoniae; strain C21, With Tween80 | K. pneumoniae; strain C21, Without Tween80 | K. pneumoniae; strain C26, With Tween80 | K. pneumoniae; strain C26, Without Tween80
0.25 µg/mL: A. baumannii; strain 38B9, With Tween80 | E. cloacae; strain 38A10, With Tween80 | E. cloacae; strain 38A10, Without Tween80 | E. cloacae; strain C129, With Tween80 | E. cloacae; strain C129, Without Tween80 | E. cloacae; strain C144, Without Tween80 | K. pneumoniae; strain 36A4, With Tween80 | K. pneumoniae; strain 36A4, Without Tween80
